Results reported in US8952024B2, “Herbicidal pyrimidone derivatives” (E I du Pont de Nemours and Company, priority 2009, dated 2015).

Assays:
Format in all cases: in vivo
[1] = tested on: barnyardgrass (Echinochloa crus-galli); test: Test A pre-/postemergence plant response
From the text: (§1) Seeds of barnyardgrass (Echinochloa crus-galli), large crabgrass (Digitaria sanguinalis), giant foxtail (Setaria faberii), morningglory (Ipomoea spp.), pigweed (Amaranthus retroflexus), velvetleaf (Abutilon theophrasti), wheat (Triticum aestivum) and corn (Zea mays) were planted into a blend of loam soil and sand and treated preemergence with a directed soil spray using test chemicals formulated in a non-phytotoxic solvent mixture which included a surfactant. At the same time these species were also treated with postemergence applications of test compounds formulated in the same manner.
(§2) Plants ranged in height from two to ten cm and were in the one- to two-leaf stage for the postemergence treatment. Treated plants and untreated controls were maintained in a greenhouse for approximately ten days, after which time all treated plants were compared to untreated controls and visually evaluated for injury. Plant response ratings, summarized in Table A, are based on a 0 to 100 scale where 0 is no effect and 100 is complete control. A dash (-) response means no test result.

[2] = tested on: pigweed (Amaranthus retroflexus); test: Test A pre-/postemergence plant response
From the text: as §1, §2

corn (Zea mays) = test: Test A pre-/postemergence plant response
From the text: as §1, §2

[3] = tested on: velvetleaf (Abutilon theophrasti); test: Test A pre-/postemergence plant response
From the text: as §1, §2

[4] = tested on: large crabgrass (Digitaria sanguinalis); test: Test A pre-/postemergence plant response
From the text: as §1, §2

[5] = tested on: wheat (Triticum aestivum); test: Test A pre-/postemergence plant response
From the text: as §1, §2

[6] = tested on: giant foxtail (Setaria faberii); test: Test A pre-/postemergence plant response
From the text: as §1, §2

[7] = tested on: morningglory (Ipomoea spp.); test: Test A pre-/postemergence plant response
From the text: as §1, §2

rice (Oryza sativa) = test: Test B flooded paddy test; settings: for Plant response rating, Rice: Flood (flooded paddy test), 13 to 15 days; for Rice plant response rating: Flood, 31 g ai/ha, scale 0 to 100 (0 no effect, 100 complete control)
Procedure, shortened: (§3)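 Post-flood paddy application: compounds are introduced into water 3 cm deep over the soil, reaching plants at the 2-leaf stage. The water level is maintained, and after 13–15 days under greenhouse conditions, response is judged by eye relative to controls, where 100 means complete control.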

[8] = tested on: ducksalad (Heteranthera limosa); test: Test B flooded paddy test; settings: for Plant response rating, Ducksalad: Flood (flooded paddy test), 13 to 15 days; for Ducksalad plant response rating: Flood, 31 g ai/ha, scale 0 to 100 (0 no effect, 100 complete control)
Procedure, shortened: as §3

[9] = tested on: barnyardgrass (Echinochloa crus-galli); test: Test B flooded paddy test; settings: for Plant response rating, Barnyardgrass: Flood (flooded paddy test), 13 to 15 days; for Barnyardgrass plant response rating: Flood, 31 g ai/ha, scale 0 to 100 (0 no effect, 100 complete control)
Procedure, shortened: as §3

[10] = tested on: umbrella sedge (Cyperus difformis); test: Test B flooded paddy test; settings: for Plant response rating, Sedge, Umbrella: Flood (flooded paddy test), 13 to 15 days; for Sedge, Umbrella plant response rating: Flood, 31 g ai/ha, scale 0 to 100 (0 no effect, 100 complete control)
Procedure, shortened: as §3

[11] = Postemergence, 125 g ai/ha, 0 to 100 scale where 0 is no effect and 100 is complete control
[12] = Postemergence, 500 g ai/ha, 0 to 100 scale, 0 = no effect, 100 = complete control, approx. ten days
[13] = Preemergence, 125 g ai/ha, 0 to 100 scale, 0 = no effect, 100 = complete control
[14] = Preemergence, 500 g ai/ha, visual injury, 0 to 100 scale (0 no effect, 100 complete control), approx. ten days
[15] = Preemergence, 500 g ai/ha, 0 to 100 scale, 0 = no effect, 100 = complete control
[16] = 250 g ai/ha, flooded paddy test, visual rating on 0 to 100 scale (0 no effect, 100 complete control) after 13 to 15 days
[17] = 62 g ai/ha, scale of 0 to 100 where 0 is no effect and 100 is complete control
[18] = 125 g ai/ha, scale 0 to 100, 0 is no effect, 100 is complete control
[19] = Postemergence, 500 g ai/ha, visual injury, 0 to 100 scale (0 no effect, 100 complete control), approx. ten days

Cc1ccc(F)cc1-n1c(-c2cccc(Br)c2)ncc(C(=O)C2=C(O)CCCC2=O)c1=O [Compound 154]
Plant response rating, Barnyardgrass [1, 11]: 90 | Plant response rating, Barnyardgrass [1, 12]: 90 | Plant response rating, Barnyardgrass [1, 13]: 0 | Plant response rating, Barnyardgrass [1, 14]: 40 | Plant response rating, Pigweed [2, 11]: 60 | Plant response rating, Pigweed [2, 12]: 100 | Plant response rating, Pigweed [2, 13]: 30 | Plant response rating, Pigweed [2, 14]: 80 | Plant response rating, Corn (corn (Zea mays); [11]): 0 | Plant response rating, Corn (corn (Zea mays); [12]): 10 | Plant response rating, Corn (corn (Zea mays); [13]): 0 | Plant response rating, Corn (corn (Zea mays); [14]): 0 | Plant response rating, Velvetleaf [3, 11]: 100 | Plant response rating, Velvetleaf [3, 12]: 100 | Plant response rating, Velvetleaf [3, 13]: 40 | Plant response rating, Velvetleaf [3, 15]: 80 | Plant response rating, Crabgrass, Large [4, 11]: 70 | Plant response rating, Crabgrass, Large [4, 12]: 100 | Plant response rating, Crabgrass, Large [4, 13]: 10 | Plant response rating, Crabgrass, Large [4, 14]: 50 | Plant response rating, Wheat [5, 11]: 0 | Plant response rating, Wheat [5, 12]: 0 | Plant response rating, Wheat [5, 13]: 0 | Plant response rating, Wheat [5, 15]: 0 | Plant response rating, Foxtail, Giant [6, 11]: 60 | Plant response rating, Foxtail, Giant [6, 12]: 90 | Plant response rating, Foxtail, Giant [6, 13]: 10 | Plant response rating, Foxtail, Giant [6, 14]: 30 | Plant response rating, Morningglory [7, 11]: 30 | Plant response rating, Morningglory [7, 12]: 70 | Plant response rating, Morningglory [7, 13]: 0 | Plant response rating, Morningglory [7, 14]: 0 | Plant response rating, Flood, Rice (rice (Oryza sativa); [16]): 75 | Plant response rating, Rice (rice (Oryza sativa); [17]): 0 | Plant response rating, Rice (rice (Oryza sativa); [18]): 60 | Rice plant response rating (rice (Oryza sativa)): 0 | Plant response rating, Flood, Ducksalad [8, 16]: 100 | Plant response rating, Ducksalad [8, 17]: 50 | Plant response rating, Ducksalad [8, 18]: 70 | Ducksalad plant response rating [8]: 0 | Plant response rating, Flood, Barnyardgrass [9, 16]: 40 | Plant response rating, Barnyardgrass [9, 17]: 0 | Plant response rating, Barnyardgrass [9, 18]: 0 | Barnyardgrass plant response rating [9]: 0 | Plant response rating, Flood, Sedge, Umbrella [10, 16]: 100 | Plant response rating, Sedge, Umbrella [10, 17]: 95 | Plant response rating, Sedge, Umbrella [10, 18]: 95 | Sedge, Umbrella plant response rating [10]: 0

O=C1CCCC(O)=C1C(=O)c1cnc(-c2cc(F)cc(F)c2)n(CC2CCCCC2)c1=O [Compound 163]
Plant response rating, Barnyardgrass [1, 11]: 50 | Barnyardgrass plant response rating [1, 19]: 100 | Plant response rating, Barnyardgrass [1, 13]: 0 | Plant response rating, Barnyardgrass [1, 15]: 20 | Plant response rating, Pigweed [2, 11]: 80 | Pigweed plant response rating [2, 19]: 100 | Plant response rating, Pigweed [2, 13]: 0 | Plant response rating, Pigweed [2, 15]: 60 | Plant response rating, Corn (corn (Zea mays); [11]): 0 | Corn plant response rating (corn (Zea mays); [19]): 20 | Plant response rating, Corn (corn (Zea mays); [13]): 0 | Plant response rating, Corn (corn (Zea mays); [15]): 0 | Plant response rating, Velvetleaf [3, 11]: 100 | Velvetleaf plant response rating [3, 19]: 100 | Plant response rating, Velvetleaf [3, 13]: 10 | Plant response rating, Velvetleaf [3, 15]: 50 | Plant response rating, Crabgrass, Large [4, 11]: 60 | Crabgrass, Large plant response rating [4, 19]: 90 | Plant response rating, Crabgrass, Large [4, 13]: 0 | Plant response rating, Crabgrass, Large [4, 15]: 10 | Plant response rating, Wheat [5, 11]: 0 | Wheat plant response rating [5, 19]: 0 | Plant response rating, Wheat [5, 13]: 0 | Plant response rating, Wheat [5, 15]: 0 | Plant response rating, Foxtail, Giant [6, 11]: 20 | Foxtail, Giant plant response rating [6, 19]: 50 | Plant response rating, Foxtail, Giant [6, 13]: 0 | Plant response rating, Foxtail, Giant [6, 15]: 10 | Plant response rating, Morningglory [7, 11]: 10 | Morningglory plant response rating [7, 19]: 100 | Plant response rating, Morningglory [7, 13]: 0 | Plant response rating, Morningglory [7, 15]: 0 | Plant response rating, Rice (rice (Oryza sativa); [18]): 20 | Rice plant response rating (rice (Oryza sativa)): 10 | Plant response rating, Ducksalad [8, 18]: 60 | Ducksalad plant response rating [8]: 30 | Plant response rating, Barnyardgrass [9, 18]: 0 | Barnyardgrass plant response rating [9]: 0 | Plant response rating, Sedge, Umbrella [10, 18]: 70 | Sedge, Umbrella plant response rating [10]: 70
